From patent US20250228239A1, “MOLECULES HAVING PESTICIDAL UTILITY, AND INTERMEDIATES, COMPOSITIONS, AND PROCESSES, RELATED THERETO” (priority 2024, published 2025)

How the values were obtained:
Type in all cases: in vivo
[1] = tested on: Yellow Fever Mosquito (Aedes aegypti, AEDSAE); conditions: Yellow Fever Mosquito; rating class
How it was run: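 Compounds from 4000 ppm DMSO stocks were diluted in 90:10 water/acetone and dispensed into wells, then infested with about 1-day-old larvae in liver-powder water. Covered plates were held at room temperature for 3 days and each well was scored for mortality against a rating scale; six replicate plates per compound.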

[2] = tested on: Cabbage Looper (Trichoplusia ni, TRIPNI); assay: Bioassays on Cabbage Looper (CL), 128-well diet tray assay; conditions: Trichoplusia ni; Cabbage Looper; rating class; read-out: CL
How it was run: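 One to five second-instar larvae per well on artificial diet surface-treated with 50 μg/cm^2 test molecule (applied in 90:10 acetone-water, dried). Held 5–7 days at 25° C, 14:10 light-dark; percent mortality recorded per well and averaged over eight wells.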

[3] = tested on: Beet Armyworm (Spodoptera exigua, LAPHEG); assay: Bioassays on Beet Armyworm (BAW), 128-well diet tray assay; conditions: Spodoptera exigua; Beet Armyworm; rating class; read-out: BAW
How it was run: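 Eight diet wells per compound were treated at 50 μg/cm^2 (acetone-water 90:10), dried, then infested with 1–5 second-instar larvae each. After five to seven days at 25 °C under 14:10 photoperiod, mortality was scored and averaged across wells.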

[4] = tested on: Green Peach Aphid (Myzus persicae, MYZUPE); assay: Bioassays on Green Peach Aphid (GPA), foliar spray on cabbage seedlings; conditions: 72 h, Green Peach Aphid, rating class, read-out: GPA
How it was run: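 Percent control (Abbott-corrected versus solvent-sprayed plants) comes from live-aphid counts three days after treatment at about 25° C. Test solution at 200 ppm was sprayed to runoff onto both leaf surfaces of cabbage seedlings infested a day earlier with 20-50 aphids; four replicate pots.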

SMILES | YFM [1] | pest or weed control at 50 µg/cm2 [2] [%] | pest or weed control at 50 µg/cm2 [3] [%] | pest or weed control at 200 µg/mL [4] [%]
CN(C(=O)CC#N)c1c(F)ccc(NC(=O)c2cc(NC(=O)[C@H]3[C@H](c4ccc(Cl)c(Cl)c4)C3(Cl)Cl)ccc2Cl)c1F [F1617, 2-Chloro-N-(3-(2-cyano-N-methylacetamido)-2,4-difluorophenyl)-5-((1R,3R)-2,2-dichloro-3-(3,4-dichlorophenyl)cyclopropane-1-carboxamido)benzamide] | A (80–100) | 50 to 100 | 50 to 100 | 0 to 80
O=C1CCC(C(=O)Nc2c(F)ccc(NC(=O)c3cc(NC(=O)[C@H]4[C@H](c5ccc(F)c(C(F)(F)F)c5)C4(Cl)Cl)ccc3Cl)c2F)O1 (stereo partly drawn) [F1625, N-(3-(2-Chloro-5-((1R,3R)-2,2-dichloro-3-(4-fluoro-3-(trifluoromethyl)phenyl)cyclopropane-1-carboxamido)benzamido)-2,6-difluorophenyl)-5-oxotetrahydrofuran-2-carboxamide] | A (80–100) | 50 to 100 | 50 to 100 | 0 to 80
CC(=O)Nc1c(F)cc(F)c(NC(=O)c2cc(NC(=O)[C@H]3[C@H](c4ccc(F)c(Cl)c4)C3(Cl)Cl)ccc2Cl)c1F [F1627, N-(3-Acetamido-2,4,6-trifluorophenyl)-2-chloro-5-((1R,3R)-2,2-dichloro-3-(3-chloro-4-fluorophenyl)cyclopropane-1-carboxamido)benzamide] | A (80–100) | 50 to 100 | 50 to 100 | 80 to 100
CCC(C)C(=O)Nc1c(F)ccc(NC(=O)c2cc(NC(=O)[C@H]3[C@H](c4ccc(F)c(C(F)(F)F)c4)C3(Cl)Cl)ccc2Cl)c1F (stereo partly drawn) [F1642, 2-Chloro-5-((1R,3R)-2,2-dichloro-3-(4-fluoro-3-(trifluoromethyl)phenyl)cyclopropane-1-carboxamido)-N-(2,4-difluoro-3-(2-methylbutanamido)phenyl)benzamide] | A (80–100) | 50 to 100 | 50 to 100 | 0 to 80
O=C(Nc1ccc(F)c(NC(=O)C2CCCC2)c1F)c1cc(NC(=O)[C@H]2[C@H](c3ccc(F)c(C(F)(F)F)c3)C2(Cl)Cl)ccc1Cl [F1643, 2-Chloro-N-(3-(cyclopentanecarboxamido)-2,4-difluorophenyl)-5-((1R,3R)-2,2-dichloro-3-(4-fluoro-3-(trifluoromethyl)phenyl)cyclopropane-1-carboxamido)benzamide] | B (More than 0 – Less than 80) | 50 to 100 | 50 to 100 | 0 to 80
O=C(Nc1ccc(F)c(NC(=O)C2CC(F)(F)C2)c1F)c1cc(NC(=O)[C@H]2[C@H](c3ccc(F)c(C(F)(F)F)c3)C2(Cl)Cl)ccc1Cl [F1644, 2-Chloro-5-((1R,3R)-2,2-dichloro-3-(4-fluoro-3-(trifluoromethyl)phenyl)cyclopropane-1-carboxamido)-N-(3-(3,3-difluorocyclobutane-1-carboxamido)-2,4-difluorophenyl)benzamide] | B (More than 0 – Less than 80) | 50 to 100 | 50 to 100 | 0 to 80
CCCC(=O)Nc1c(F)ccc(NC(=O)c2cc(NC(=O)[C@H]3[C@H](c4cc(Cl)c(Cl)c(Cl)c4)C3(Cl)Cl)ccc2Cl)c1F [F1655, N-(3-Butyramido-2,4-difluorophenyl)-2-chloro-5-((1R,3R)-2,2-dichloro-3-(3,4,5-trichlorophenyl)cyclopropane-1-carboxamido)benzamide] | B (More than 0 – Less than 80) | 50 to 100 | 50 to 100 | 0 to 80
O=C(Nc1ccc(F)c(NC(=O)C(F)(F)F)c1F)c1cc(NC(=O)[C@H]2[C@H](c3ccc(Cl)c(C(F)(F)F)c3)C2(Cl)Cl)ccc1Cl [F1656, 2-Chloro-5-((1R,3R)-2,2-dichloro-3-(4-chloro-3-(trifluoromethyl)phenyl)cyclopropane-1-carboxamido)-N-(2,4-difluoro-3-(2,2,2-trifluoroacetamido)phenyl)benzamide] | A (80–100) | 50 to 100 | 50 to 100 | 0 to 80
O=C(Nc1ccc(F)c(NC(=O)C(F)F)c1F)c1cc(NC(=O)[C@H]2[C@H](c3ccc(Cl)c(C(F)(F)F)c3)C2(Cl)Cl)ccc1Cl [F1657, 2-Chloro-5-((1R,3R)-2,2-dichloro-3-(4-chloro-3-(trifluoromethyl)phenyl)cyclopropane-1-carboxamido)-N-(3-(2,2-difluoroacetamido)-2,4-difluorophenyl)benzamide] | A (80–100) | 50 to 100 | 50 to 100 | 80 to 100
Nc1c(F)ccc(NC(=O)c2cc(NC(=O)[C@H]3[C@H](c4cccc(C(F)(F)F)c4)C3(Cl)Cl)ccc2Cl)c1F [F1666, N-(3-Amino-2,4-difluorophenyl)-2-chloro-5-((1R,3R)-2,2-dichloro-3-(3-(trifluoromethyl)phenyl)cyclopropane-1-carboxamido)benzamide] | B (More than 0 – Less than 80) | 50 to 100 | 50 to 100 | 80 to 100
CC(Cl)C(=O)Nc1c(F)ccc(NC(=O)c2cc(NC(=O)[C@H]3[C@H](c4ccc(F)c(C(F)(F)F)c4)C3(Cl)Cl)ccc2Cl)c1F (stereo partly drawn) [F1667, 2-Chloro-N-(3-(2-chloropropanamido)-2,4-difluorophenyl)-5-((1R,3R)-2,2-dichloro-3-(4-fluoro-3-(trifluoromethyl)phenyl)cyclopropane-1-carboxamido)benzamide] | B (More than 0 – Less than 80) | 50 to 100 | 50 to 100 | 0 to 80
O=C(Cc1ccccc1)Nc1c(F)ccc(NC(=O)c2cc(NC(=O)[C@H]3[C@H](c4ccc(Cl)c(Cl)c4)C3(Cl)Cl)ccc2Cl)c1F [F1673, 2-Chloro-5-((1R,3R)-2,2-dichloro-3-(3,4-dichlorophenyl)cyclopropane-1-carboxamido)-N-(2,4-difluoro-3-(2-phenylacetamido)phenyl)benzamide] | B (More than 0 – Less than 80) | 50 to 100 | 50 to 100 | 0 to 80
CC(=O)Nc1c(F)ccc(NC(=O)c2cc(NC(=O)[C@H]3[C@H](c4cccc(C(F)(F)F)c4)C3(Cl)Cl)ccc2Cl)c1F [F1678, N-(3-Acetamido-2,4-difluorophenyl)-2-chloro-5-((1R,3R)-2,2-dichloro-3-(3-(trifluoromethyl)phenyl)cyclopropane-1-carboxamido)benzamide] | B (More than 0 – Less than 80) | 50 to 100 | 50 to 100 | 80 to 100
CC(=O)Nc1c(F)ccc(NC(=O)c2cc(NC(=O)[C@H]3[C@H](c4ccc(F)c(Cl)c4)C3(Cl)Cl)ccc2Cl)c1F [F1694, N-(3-Acetamido-2,4-difluorophenyl)-2-chloro-5-((1R,3R)-2,2-dichloro-3-(3-chloro-4-fluorophenyl)cyclopropane-1-carboxamido)benzamide] | A (80–100) | 50 to 100 | 50 to 100 | 80 to 100
